Laboratory results from the supplement of paper PMC10307832.

Key:
Assay in all cases: relative viability (nuclei count vs DMSO), 5 days (fraction); higher = more cells survive
Metformin + Crizotinib = compound: CN(C)C(=N)NC(=N)N [Metformin] + C[C@@H](Oc1cc(-c2cnn(C3CCNCC3)c2)cnc1N)c1c(Cl)ccc(F)c1Cl [Crizotinib] (partner 1 µM)
Summary of the method: (§1)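 Nuclei were stained with Hoechst during a one-step fixation (final 0.05% Triton X-100, 1% formaldehyde, 1 ug/ml Hoechst) carried out 5 days after dosing, then counted on 4× images. The cells, lung cancer lines in 1536-well plates, had been dosed by pin tool the day after seeding with one drug alone or a fixed anchor-drug dose plus five library-drug doses (not always all listed) in √10 steps. Relative viability is the nuclei count in treated wells divided by that in vehicle wells, and each value is the median of duplicate plates.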

Metformin + Linsitinib = compound: CN(C)C(=N)NC(=N)N [Metformin] + C[C@]1(O)C[C@@H](c2nc(-c3ccc4ccc(-c5ccccc5)nc4c3)c3c(N)nccn32)C1 [Linsitinib] (partner 1 µM)
Summary of the method: as §1

Apatinib + Palbociclib = compound: N#CC1(c2ccc(NC(=O)c3cccnc3NCc3ccncc3)cc2)CCCC1 [Apatinib] + CC(=O)c1c(C)c2cnc(Nc3ccc(N4CCNCC4)cn3)nc2n(C2CCCC2)c1=O [Palbociclib] (partner 0.5 µM)
Summary of the method: as §1

Apatinib + Decitabine = compound: N#CC1(c2ccc(NC(=O)c3cccnc3NCc3ccncc3)cc2)CCCC1 [Apatinib] + Nc1ncn([C@H]2C[C@H](O)[C@@H](CO)O2)c(=O)n1 [Decitabine] (partner 2 µM)
Summary of the method: as §1

| Cell Line | relative viability (Metformin + Crizotinib; first compound 10 µM) | relative viability (Metformin + Crizotinib; first compound 31.62 µM) | relative viability (Metformin + Crizotinib; first compound 100 µM) | relative viability (Metformin + Crizotinib; first compound 316.23 µM) | relative viability (Metformin + Crizotinib; first compound 1000 µM) | relative viability (Metformin + Linsitinib; first compound 10 µM) | relative viability (Metformin + Linsitinib; first compound 31.62 µM) | relative viability (Metformin + Linsitinib; first compound 100 µM) | relative viability (Metformin + Linsitinib; first compound 316.23 µM) | relative viability (Metformin + Linsitinib; first compound 1000 µM) | relative viability (Apatinib + Palbociclib; first compound 0.08 µM) | relative viability (Apatinib + Palbociclib; first compound 0.253 µM) | relative viability (Apatinib + Palbociclib; first compound 0.8 µM) | relative viability (Apatinib + Palbociclib; first compound 2.53 µM) | relative viability (Apatinib + Palbociclib; first compound 8 µM) | relative viability (Apatinib + Decitabine; first compound 0.08 µM) | relative viability (Apatinib + Decitabine; first compound 0.253 µM) | relative viability (Apatinib + Decitabine; first compound 0.8 µM) | relative viability (Apatinib + Decitabine; first compound 2.53 µM) | relative viability (Apatinib + Decitabine; first compound 8 µM) |
| --- | --- | --- | --- | --- | --- | --- | --- | --- | --- | --- | --- | --- | --- | --- | --- | --- | --- | --- | --- | --- |
| PC-14 | 0.889 | 0.912 | 0.896 | 0.769 | 0.894 | 1.03 | 0.955 | 0.916 | 0.918 | 1.03 | 0.555 | 0.619 | 0.493 | 0.611 | 0.33 | 0.28 | 0.293 | 0.189 | 0.228 | 0.28 |
| HCC-78 | 0.422 | 0.487 | 0.498 | 0.491 | 0.529 | 0.842 | 0.927 | 0.877 | 0.681 | 0.927 | 0.48 | 0.453 | 0.476 | 0.494 | 0.442 | 0.7 | 0.694 | 0.692 | 0.701 | 0.913 |
| NCI-H322M | 0.884 | 1.01 | 0.958 | 0.854 | 0.78 | 1.04 | 0.954 | 0.934 | 0.864 | 0.915 | 0.464 | 0.539 | 0.499 | 0.51 | 0.57 | 0.75 | 0.709 | 0.64 | 0.833 | 0.783 |
| NCI-H2023 |  | 0.767 | 0.706 |  | 0.512 |  | 0.687 | 0.806 |  | 0.515 | 0.381 | 0.402 | 0.354 | 0.376 | 0.307 | 0.233 | 0.261 | 0.269 | 0.307 | 0.472 |
| NCI-H1651 | 0.933 | 0.957 | 0.939 | 0.964 | 0.97 | 1.3 | 1.23 | 1.35 | 1.21 | 1.43 | 0.516 | 0.522 | 0.489 | 0.514 | 0.459 | 0.609 | 0.53 | 0.611 | 0.593 | 0.41 |
| HCC-15 | 0.818 | 0.81 | 0.889 | 0.8 | 0.833 | 0.877 | 0.965 | 0.953 | 0.857 | 0.947 | 0.792 | 0.734 | 0.677 | 0.705 | 0.586 | 0.703 | 0.656 | 0.638 | 0.604 | 0.606 |
| NCI-H3122 | 0.225 | 0.213 | 0.241 | 0.255 | 0.224 | 0.89 | 0.98 | 0.949 | 0.96 | 0.92 | 0.186 | 0.231 | 0.191 | 0.23 | 0.228 | 0.505 | 0.431 | 0.44 | 0.495 | 0.433 |
| LOU-NH91 | 0.747 | 0.806 | 0.766 | 0.802 | 0.847 | 1.01 | 0.876 | 0.986 | 1.09 | 0.905 | 0.549 | 0.508 | 0.526 | 0.58 | 0.531 | 0.85 | 0.827 | 0.732 | 0.741 | 0.776 |
